Data on six molecules can be found in patent publication US20160022872A1, “CELL-BASED COMPOSITIONS, CELL-BASED BANDAGE DEVICES AND SYSTEMS AND METHODS OF TREATMENT THEREWITH” (UNIVERSITY OF PITTSBURGH-OF THE COMMONWEALTH SYSTEM OF …, priority 2013, published 2016).

In series [1] the test system is imhMSC and prhMSC. Particulars: for toxic effect on MSC (caspase3 activation without FasL): MSC on Collagen I and TNC, no FasL; for effect on survival advantage of TNC and Collagen I in the presence of FasL: prhMSC on Collagen I and TNC, inhibitor 30 minutes prior to and during 8 hours FasL; for cell death / caspase3 activation (FLICA): FasL or CHX and FasL, 8 hours (imhMSC) or 12 hours (prhMSC). Here is the method: MSCs are most susceptible to cell death via the Fas death pathway. […] Cells were also treated with a low concentration of the protein synthesis inhibitor cycloheximide (CHX) in addition to FasL. Cycloheximide, being a protein synthesis inhibitor, increases cell stress, imitating the starvation stress seen in vivo in a wound setting.
After preparation of coated surfaces and prior to seeding of MSC, neutralizing antibodies to the EGFL and FNL domains were added for 24 hours Immortalized hMSC were then seeded for 24 hours, kept treated or untreated with FasL for 8 hours, followed by a FLICA assay to test for caspase3 activation.
We next studied whether TNC contributes to survival of MSCs by sequestering FasL and prevention of FasL from binding its receptor Fas on MSC. We grew MSCs inside two cloning cylinders placed in wells of a 6-well dish, enclosing areas without any ECM, or with Collagen I and TNC, on which imhMSC were grown. One well had Collagen I and TNC coating surrounding the cloning cylinders, covered with media and FasL. The second well had only media with FasL surrounding the cloning cylinders, with no TNC.
The inhibitors were present during the entire 8 hours of FasL treatment, after which a FLICA assay was performed.

In a further series the test system is Erk. The series is described as follows: immunofluorescence for phospho-Erk. Particulars: imhMSC, 0, 30 and 60 minutes. It counts as cell-based, human. As to the method:
We examined that of Erk Immortalized hMSC were plated on surfaces with Collagen I alone or Collagen I and TNC for 24 hours. After 24 hours, (considered 0 minute), immunofluorescence for phospho-Erk (green fluorescence) was tested either with or without the EGFR inhibitor PD153035.

For the next series, the system named is EGFR. The experiment in a line: immunofluorescence for phospho-EGFR and EEA1. It counts as cell-based, human. Here is the method: Upon determining that TNC provided a survival effect on MSC in the presence of FasL, and that this mapped to the EGFL, we studied if Tenascin C was able to activate EGFR on the surface of MSC and if this activation was sustained. MSCs have low levels of EGFR, which may limit activation by the ultra-low affinity EGFL. In a number of studies, immortalized hMSC were plated on surfaces with Collagen I alone or Collagen I and TNC for 24 hours. After 24 hours, (considered 0 minute), immunofluorescence for phospho-EGFR (red fluorescence) and the early endosome marker EEA1 (green fluorescence) was done on these samples. […] Immortalized hMSC seeded on Collagen I were treated with EGF, the prototypal EGFR ligand, known to cause EGFR internalization for 15, 30 and 60 minutes prior to fixation, to induce phosphorylation of EGFR. At the same time points, immunofluorescence was done on cells grown on Collagen I and TNC.

The test system of series [2] is imhMSC and prhMSC. The experiment in a line: MSC proliferation on extracellular matrix coatings. Conditions: 96 hours post-seeding. It counts as cell-based, human. From the text:
During wound healing, endogenous MSC proliferation and differentiation are temporally distinct events. […] We tested if the extracellular matrix or ECM factors had any influence on MSC proliferation.

The test system of series [3] is MSC. The series is described as follows: MSC differentiation on coated surfaces (Von Kossa staining, adipocyte formation). Format: cell-based, human. From the text: We then studied whether TNC by itself, in the absence of specific differentiation cues, promotes MSC differentiation. We examined osteoblast or adipose cell formation from MSC grown on TNC and Collagen (Col I), in the presence of either proliferation or differentiation media. […] The matrix mix of TNC and Collagen I also did it interfere with differentiation.

Series [4] has as its system MSC. The experiment in a line: inverted centrifugation assay of MSC adhesiveness on coated surfaces. It counts as cell-based, human. Conditions: 2 hours post-seeding. As to the method:
Tenascin-C or TNC may reduce the number of focal adhesions and decrease cell adhesiveness in several cell types. To test for MSC adhesiveness on TNC, an inverted centrifugation assay was performed 2 hours post-seeding MSC on […] and the number of cells attached after centrifugation was compared to number of cells attached on a similarly coated surface that had not undergone centrifugation. […] To increase adhesiveness of cells on TNC we coated mixed Collagen I, a matrix naturally occurring in the in vivo bone environment and one that promotes MSC attachment and spreading, in a 1:1 ratio with TNC for coating substrates. […] In a number of studies hereof, a combination of Collagen I and TNC was used to increase TNC adherence to cells.

For series [5], the system named is MSC. The series is described as follows: flow cytometric quantification of FITC/HLA+ cells, MSC survival in wound bed. Format: in vivo, mouse. Conditions: days 3, 7 and 21; WT and KO mice. From the text: Male and Female FVB (Friend Virus B-Type) and C57BL/6 mice, between 7-9 weeks of age, were used in a number of studies. After shaving the hair on the back of the mice, 8 mm punch biopsies were created. Wounds were either left untreated or treated with commercially available NEW-SKIN® (a liquid bandage or wound protective barrier available from J&J of New Brunswick, N.J.), PEG-Polymer, PEG-Polymer+TNC, or PEG-Polymer+TNC−MSC. […]
Flow cytometric quantification of FITC/HLA+cells was used to detect MSC survival in the wound bed. […]
After shaving the hair on the back of the mice 8 mm punch biopsies were created. […] Animals were euthanized by CO2 inhalation and the wounds assessed. […] Each wound was measured and then removed from the animal, with unwounded skin taken from the contralateral dorsum as a control.
Flow Cytometry. Twelve-millimeter punch biopsies of the wound and 12-mm punch biopsies of unwounded regions were isolated for quantification of MSC engraftment in wounded skin at days 3, 7, 14, and 21. […] Flow cytometry was performed on an LSR II Cytometer (a flow cytometer system available from BD Biosciences of Franklin Lakes, N.J.) and subsequently analyzed using FOWJO® digital FACS software (available from Tree Star, Inc. of Ashland, Oreg.).
Background: Flow cytometry measures light scatter and fluorescence of single cells or particles in a stream.

Entries after “also recorded” stand apart in the source; their conditions may differ. Where two headings read alike, the source gives them in different places.

For the molecule `O=c1cc(N2CCOCC2)oc2c(-c3ccccc3)cccc12` [LY294002, reference compound], in the series with imhMSC and prhMSC [1], the “toxic effect on MSC (caspase3 activation without FasL)” value is listed as “did not have a toxic effect on cells”.
In the case of `COc1cccc(-c2cc(=O)c3ccccc3o2)c1N` [PD98059, reference compound], in the series on imhMSC and prhMSC [1], the “toxic effect on MSC (caspase3 activation without FasL)” value was “did not have a toxic effect on cells”; the “effect on survival advantage of TNC and Collagen I in the presence of FasL” value is listed as “blocked the survival advantage”.
As to `COc1cc2ncnc(Nc3cccc(Br)c3)c2cc1OC` [PD153035, reference compound], in the series on Erk, the phospho-Erk activation result is given as “reduced but not completely inhibited”. In the series on imhMSC and prhMSC [1], the “toxic effect on MSC (caspase3 activation without FasL)” value is reported as “did not have a toxic effect on cells”; the “effect on survival advantage of TNC and Collagen I in the presence of FasL” value is recorded as “blocked the survival advantage”.
Consider “Collagen I: a matrix naturally occurring in the in vivo bone environment that promotes MSC attachment and spreading”, for which the phospho-EGFR staining entry in the series with EGFR (imhMSC, 24 hours after plating (0 minute)) is recorded as “did not show phospho-EGFR staining”. The phospho-Erk activation entry in the series with Erk is “significantly less than that with TNC”. Also, the “cell death / caspase3 activation (FLICA)” value in the series with imhMSC and prhMSC [1] was “did not show protection”; in the series with imhMSC and prhMSC [1] (listed as Collagen I alone) it was “showed caspase 3 activation”. In addition, in the series on imhMSC and prhMSC [2], the “MSC proliferation relative to cell numbers initially plated” value is “promote both imhMSC and prhMSC proliferation”. In the series with MSC [3] (30 days in proliferation media), the “hydroxyapatite deposition (Von Kossa staining)” value is “neither Collagen I by itself nor TNC and Collagen I caused hydroxyapatite deposition”.
On to “EGF: the prototypal EGFR ligand, known to cause EGFR internalization”, for which, in the series with EGFR (imhMSC, 15, 30 and 60 minutes), the “phospho-EGFR staining over time” value is reported as “stained positive for phospho-EGFR after 15 minutes of treatment; also recorded: very little phospho-EGFR signal”.
In the case of “TNC: the matrikine tenascin C, containing EGF-like and fibronectin like repeats”, the phospho-Erk activation result with Erk was “activate phosho-Erk in MSC at 0, 30 and 60 minutes”. Moreover, the “cell death / caspase3 activation (FLICA)” value in the series on imhMSC and prhMSC [1] is listed as “did not show caspase3 activation”. Also, the “sequestering or neutralizing of FasL” value with imhMSC and prhMSC [1] (cloning cylinder experiment, imhMSC) is “neither sequestering nor neutralizing FasL”. Also, the “optimal TNC coating to promote MSC survival in the presence of FasL” value in the series with imhMSC and prhMSC [1] (dose response, TUNEL and FLICA staining) stood at 1 Lg/cm2. In addition, the MSC adhesiveness entry with MSC [4] was “detach from surfaces after inverted centrifugation; also recorded: only half as adhesive as cells on Collagen I”. Further, the “MSC survival in wound bed over time” value in the series with MSC [5] is “survive more and longer”. Besides, the adipocyte formation entry was “did not prevent adipocyte formation” with MSC [3] (in the presence of adipogenic inducers) and “did not promote adipocyte formation on its own” with MSC [3] (on its own, no inducers). In addition, the osteogenic differentiation entry in the series on MSC [3] (in the presence of differentiation media) is reported as “did not interfere with osteogenic differentiation”.
